Here are results for 25 molecules from patent publication US7501425B1, “Bicyclic pyrimidines and bicyclic 3,4-dihydropyprimidines as inhibitors of cellular proliferation” (Warner Lambert Company, priority 1999, dated 2009).

As usually defined, the melting point is the temperature, or range, at which the solid turns liquid.

For one series, the target named is cdk2/cyclinE (Homo sapiens, UniProt P24941). The series can be described thus: Cyclin-dependent kinase assay cdk2/cyclinE. As to conditions: for pIC50: read-out: cdk2/E IC50; for inhibition at 40 µM: read-out: cdk2/E % Inhibition at 40 μM. It is filed as biochemical. The method, then: (§1) Cyclin-Dependent Kinase Assays (cdk2/cyclinE, cdk2/cyclinA, cdc2/cyclinB)
(§2) All components except the ATP were added to the wells, and the plate was placed on a plate mixer for 2 minutes. The reaction was begun by addition of [^32P]ATP, and the plate was incubated at 25° C. for 15 minutes. The reaction was terminated by addition of 0.1 mL of 20% TCA. The plate was kept at 4° C. for at least 1 hour to allow the substrate to precipitate. The wells were then washed five times with 0.2 mL of 10% TCA and ^32P incorporation determined with a beta plate counter (Wallac Inc., Gaithersburg, Md.).

For another series, the target named is cdk4/D (Homo sapiens, UniProt P11802). The series can be described thus: Cyclin-Dependent Kinase 4 (cdk4) enzyme assay, 32P incorporation. It counts as biochemical. The protocol:
A typical assay, for instance, measures inhibitory activity against the cyclin D dependent kinase 4 enzyme (cdk4/D). […] The cdk4 assay was carried out as follows.
Cyclin-Dependent Kinase 4 (cdk4) Assay
Enzyme assays for IC50 determinations (Tables 1 and 2) and kinetic evaluation were performed in 96 well filter plates (Millipore MADVN6550). The total volume was 0.1 mL containing a final concentration of 20 mM TRIS (tris[hydroxymethyl]aminomethane), at pH 7.4, 50 mM NaCl, 1 mM dithiothreitol, 10 mM MgCl2, 25 μM ATP containing 0.25 μCi of [^32P]ATP, 20 ng of cdk4, 1 μg of retinoblastoma, and appropriate dilutions of a compound of the present invention. All components except the ATP were added to the wells, and the plate was placed on a plate mixer for 2 minutes. The reaction was started by adding [^32P]ATP and the plate was incubated at 25° C. for 15 minutes. The reaction was terminated by addition of 0.1 mL of 20% trichloroacetic acid (TCA). The plate was kept at 4° C. for at least 1 hour to allow the substrate to precipitate. The wells were then washed five times with 0.2 mL of 10% TCA and ^32p incorporation was determined with a beta plate counter (Wallac Inc., Gaithersburg. MD).

In a further series the target is cdc2/cyclinB (Homo sapiens, UniProt P06493). Description: Cyclin-dependent kinase assay cdc2/cyclinB (cdk1/B). It counts as biochemical. The protocol: as §1, §2
The next series has as its target cdk2/cyclinA (Homo sapiens, UniProt P24941). The series can be described thus: Cyclin-dependent kinase assay cdk2/cyclinA. It is filed as biochemical. The protocol:
as §1, §2

pIC50: −log10 of the molar value. Some results are limits rather than exact numbers.

Chain of cdk4/D (P11802 whole entry, species assumed): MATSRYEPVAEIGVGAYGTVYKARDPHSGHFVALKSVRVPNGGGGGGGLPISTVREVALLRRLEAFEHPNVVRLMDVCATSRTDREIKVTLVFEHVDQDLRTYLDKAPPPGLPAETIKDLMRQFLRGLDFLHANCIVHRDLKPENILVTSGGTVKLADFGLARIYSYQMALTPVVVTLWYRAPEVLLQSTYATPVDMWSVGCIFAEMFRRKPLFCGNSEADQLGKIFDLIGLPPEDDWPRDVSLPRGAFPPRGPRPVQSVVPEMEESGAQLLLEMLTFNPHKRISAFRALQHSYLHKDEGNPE
Chain of cdk4/D (P24385 whole entry partner, species assumed): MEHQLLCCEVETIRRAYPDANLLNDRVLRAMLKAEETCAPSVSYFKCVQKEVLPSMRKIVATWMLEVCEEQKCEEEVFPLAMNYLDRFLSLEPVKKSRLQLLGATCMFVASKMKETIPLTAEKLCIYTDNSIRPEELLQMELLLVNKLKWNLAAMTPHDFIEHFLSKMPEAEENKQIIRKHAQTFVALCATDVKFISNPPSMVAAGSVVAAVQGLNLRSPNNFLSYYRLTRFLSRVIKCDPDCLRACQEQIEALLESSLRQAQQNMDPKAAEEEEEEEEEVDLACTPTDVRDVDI
Chain of cdc2/cyclinB (P06493 whole entry, species assumed): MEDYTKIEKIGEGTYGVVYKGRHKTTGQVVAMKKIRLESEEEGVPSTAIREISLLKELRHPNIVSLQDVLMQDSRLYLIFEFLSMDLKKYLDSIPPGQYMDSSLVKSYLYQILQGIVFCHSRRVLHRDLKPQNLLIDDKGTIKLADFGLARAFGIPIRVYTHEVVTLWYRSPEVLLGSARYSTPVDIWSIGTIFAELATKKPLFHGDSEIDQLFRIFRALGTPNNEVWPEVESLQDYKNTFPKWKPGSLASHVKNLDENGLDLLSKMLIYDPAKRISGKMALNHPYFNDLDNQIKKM
Chain of cdc2/cyclinB (P14635 whole entry partner, species assumed): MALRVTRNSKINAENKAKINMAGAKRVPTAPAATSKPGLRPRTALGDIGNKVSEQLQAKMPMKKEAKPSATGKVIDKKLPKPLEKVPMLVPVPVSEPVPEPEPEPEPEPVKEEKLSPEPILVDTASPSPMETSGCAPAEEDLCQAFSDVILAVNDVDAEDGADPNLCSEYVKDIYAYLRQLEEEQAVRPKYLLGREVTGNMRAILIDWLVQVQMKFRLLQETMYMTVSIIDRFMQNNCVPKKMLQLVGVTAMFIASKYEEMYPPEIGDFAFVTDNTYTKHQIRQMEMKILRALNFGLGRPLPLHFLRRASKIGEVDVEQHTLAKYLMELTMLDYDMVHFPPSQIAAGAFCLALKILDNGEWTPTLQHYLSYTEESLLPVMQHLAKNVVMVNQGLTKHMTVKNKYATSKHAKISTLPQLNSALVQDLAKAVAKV

In the case of `O=C1NCc2cnc(Nc3ccc(-n4cccn4)cc3)nc2N1C1CCCC1` [Example 12, 1-Cyclopentyl-7-[4-(pyrazol-1-yl)phenylamino]-3,4-dihydro-pyrimido[4,5-d]pyrimidin-2(1H)-one], the pIC50 on cdk2/cyclinE is 5.34; on cdk4/D (25 μM ATP, retinoblastoma substrate) it was 5.74; at cdc2/cyclinB, 4.91; against cdk2/cyclinA, 5.88.
Consider `O=C1NCc2cnc(Nc3ccc(-n4cccc4)cc3)nc2N1C1CCCC1` [Example 14, 1-Cyclopentyl-7-[4-(pyrrol-1-yl)phenylamino]-3,4-dihydro-pyrimido[4,5-d]pyrimidin-2(1H)-one], for which the melting point was > 200 °C (dec.). Besides, on cdk2/cyclinE, the inhibition at 40 µM came out at 38%.
For `CC(C)N1C(=O)NCc2cnc(Nc3ccc(N4CCN(C)CC4)cc3)nc21` [Example 22, 1-Isopropyl-7-[4-(4-methylpiperazin-1-yl)phenylamino]-3,4-dihydro-pyrimido[4,5-d]pyrimidin-2(1H)-one], the melting point is 234 to 237 °C (dec.). Besides, the inhibition at 40 µM at cdk2/cyclinE worked out at 68%. Moreover, on cdc2/cyclinB, the inhibition at 40 µM came out at 25%.
For the molecule `CC(C)N1C(=O)NCc2cnc(Nc3ccc(N4CCC(CCCN5CCOCC5)CC4)cc3)nc21` [Example 26, 1-Isopropyl-7-{4-[4-(3-(morpholin-1-yl)propyl)piperidin-1-yl]phenylamino}-3,4-dihydro-pyrimido[4,5-d]pyrimidin-2(1H)-one], the melting point was 203 to 205 °C (dec.). For the same molecule, the pIC50 on cdk2/cyclinE was 4.57. Further, the pIC50 on cdc2/cyclinB was < 4.40. For the same molecule, the pIC50 against cdk2/cyclinA is 5.19.
In the case of `CN1CCN(c2ccc(Nc3ncc4c(n3)N(C)C(=O)NC4)cc2)CC1.O=C(O)C(F)(F)F` [Example 28, 1-Methyl-7-[4-(4-methylpiperazin-1-yl)phenylamino]-3,4-dihydro-pyrimido[4,5-d]pyrimidin-2(1H)-one; compound with trifluoroacetic acid], the melting point was 234 to 235 °C (dec.). Also, the inhibition at 40 µM at cdk2/cyclinE was found to be 22%. The same molecule showed an inhibition at 40 µM on cdk4/D of 15%.
Take `CN1C(=O)NCc2cnc(Nc3ccc(N4CCC(O)CC4)cc3)nc21.O=C(O)C(F)(F)F` [Example 29, 7-[4-(4-Hydroxypiperidin-1-yl)phenylamino]-1-methyl-3,4-dihydro-pyrimido[4,5-d]pyrimidin-2(1H)-one; Compound with trifluoroacetic acid]: the melting point was 228 to 229 °C (dec.). Further, the inhibition at 40 µM at cdk2/cyclinE amounted to 28%.
In the case of `CN1C(=O)NCc2cnc(Nc3ccc(-n4cccn4)cc3)nc21.O=C(O)C(F)(F)F` [Example 31, 1-Methyl-7-[4-(pyrazol-1-yl)phenylamino]-3,4-dihydro-pyrimido[4,5-d]pyrimidin-2(1H)-one; Compound with trifluoroacetic acid], the melting point was 250 to 251 °C (dec.). Further, the inhibition at 40 µM at cdk2/cyclinE came out at 21%. At cdk4/D, this molecule had an inhibition at 40 µM of 18%.
Regarding `CC(C)n1c(=O)ncc2cnc(Nc3ccc(N4CCN(C)CC4)cc3)nc21` [Example 40, 1-Isopropyl-7-[4-(4-methylpiperazin-1-yl)phenylamino]pyrimido[4,5-d]pyrimidin-2(1H)-one], the melting point is 228 to 229 °C (dec.). Moreover, on cdc2/cyclinB, the inhibition at 40 µM turned out to be 42%.
Consider `CC(C)n1c(=O)ncc2cnc(Nc3ccc(N4CCC(N(C)C)CC4)cc3)nc21` [Example 41, 7-{4-[4-(Dimethylamino)piperidin-1-yl]phenylamino}-1-isopropyl-pyrimido[4,5-d]pyrimidin-2(1H)-one], for which the melting point is > 100 °C (dec.).
Regarding `CN1CCN(c2ccc(Nc3ncc4cnc(=O)n(C)c4n3)cc2)CC1` [Example 45, 1-Methyl-7-[4-(4-methylpiperazin-1-yl)phenylamino]pyrimido[4,5-d]pyrimidin-2(1H)-one], the melting point is 259 to 260 °C (dec.). The inhibition at 40 µM on cdk2/cyclinE was determined as 16%.
Consider `CN(C)C1CCN(c2ccc(Nc3ncc4cnc(=O)n(C)c4n3)cc2)CC1` [Example 46, 7-{4-[4-(Dimethylamino)piperidin-1-yl]phenylamino}-1-methyl-pyrimido[4,5-d]pyrimidin-2(1H)-one], for which the melting point is 198 to 202 °C (dec.).
Consider `Cn1c(=O)ncc2cnc(Nc3ccc(-n4cccn4)cc3)nc21` [Example 47, 1-Methyl-7-[4-(pyrazol-1-yl)phenylamino]pyrimido[4,5-d]pyrimidin-2(1H)-one], for which the melting point is > 290 °C (dec.). For the same molecule, the inhibition at 40 µM at cdk2/cyclinE was found to be 41%.
For `CCNc1nc(SC)ncc1C=Nc1cc(OC)cc(OC)c1` [Example 48a, {5-[(3,5-Dimethoxy-phenylimino)-methyl]-2-methylsulfanyl-pyrimidin-4-yl}-ethyl-amine], the melting point lay in the range of 100 to 105 °C.
The same measure, in the same setting: the result for `COc1cc(OC)cc(N2Cc3cnc([S+](C)[O-])nc3NC2=O)c1` (centres unmarked) [Example 51, 3-(3,5-Dimethoxy-phenyl)-7-methanesulfinyl-3,4-dihydro-pyrimido [4,5-d]pyrimidin-2(1H)-one] reads 220 to 222 °C; that for `CCN(CC)CCCCNc1ncc2c(n1)NC(=O)N(c1cc(OC)cc(OC)c1)C2` [Example 52, 7-(4-Diethylamino-butylamino)-3-(3,5-dimethoxy-phenyl)-3,4-dihydro-pyrimido[4,5-d]pyrimidin-2(1H)-one], 203 to 207 °C.
The same measure, in the same setting: the result for `CCNc1nc(SC)ncc1C=Nc1cc(OC)cc(OC)c1Cl` [Example 61, {5-[(2-Chloro-3,5-dimethoxy-phenylimino)-methyl]-2-methylsulfanyl-pyrimidin-4-yl}-ethyl-amine] reads 196.5 to 198.5 °C; that for `CCNc1nc(SC)ncc1CNc1cc(OC)cc(OC)c1Cl` [Example 62, {5-[(2-Chloro-3,5-dimethoxy-phenylamino)-methyl]-2-methylsulfanyl-pyrimidin-4-yl}-ethyl-amine], 116.5 to 118.5 °C.
The same measure, in the same setting: as for `CCN1C(=O)N(c2cc(OC)cc(OC)c2Cl)Cc2cnc(SC)nc21` [Example 63, 3-(2-Chloro-3,5-dimethoxy-phenyl)-1-ethyl-7-methylsulfanyl-3,4-dihydro-pyrimido[4,5-d]pyrimidin-2(1H)-one], the figure is 189 to 191 °C.
On to `COc1cc(OC)cc(N2Cc3cnc(SC)nc3N=C2N)c1` [Example 66, 3-(3,5-Dimethoxy-phenyl)-7-methylsulfanyl-3,4-dihydro-pyrimido [4,5-d]pyrimidin-2-ylamine], for which the melting point was in the range of 198 to 204 °C.
The same measure, in the same setting: as for `C=CCn1c(=O)c2cnc(-n3ccnc3)nc2n(C(C)C)c1=O` [Example 68, 3-Allyl-7-(imidazol-1-yl)-1-isopropyl-1H-pyrimido [4,5-d]pyrimidine-2,4-dione], the figure is 158 to 160 °C; as for `COc1ccc(Cn2c(=O)c3cnc(-n4ccnc4)nc3n(C(C)C)c2=O)cc1` [Example 69, 7-(Imidazol-1-yl)-1-isopropyl-3-(4-methoxybenzyl)-1H-pyrimido[4,5-d]pyrimidine-2,4-dione], 148 to 150 °C (dec.).
`C=CCn1c(=O)c2cnc(Nc3ccc(N4CCN(C)CC4)cc3)nc2n(C(C)C)c1=O` [Example 70, 3-Allyl-1-isopropyl-7-[4-(4-methylpiperazin-1-yl)phenylamino]-1H-pyrimido[4,5-d]pyrimidine-2,4-dione] gave a melting point of 176 to 177 °C. The inhibition at 40 µM at cdk2/cyclinE was 0%.
Regarding `COc1ccc(Cn2c(=O)c3cnc(Nc4ccc(N5CCN(C)CC5)cc4)nc3n(C(C)C)c2=O)cc1` [Example 71, 1-Isopropyl-3-(4-methoxybenzyl)-7-[4-(4-methylpiperazin-1-yl)phenylamino]-1H-pyrimido[4,5-d]pyrimidine-2,4-dione], the melting point lay in the range of 215 to 216 °C.
On to `C=CCn1c(=O)c2cnc(Nc3ccc(OCCN(CC)CC)cc3)nc2n(C(C)C)c1=O` [Example 72, 3-Allyl-7-[4-(2-Diethylaminoethoxy)phenylamino]-1-isopropyl-1H-pyrimido[4,5-d]pyrimidine-2,4-dione], for which the melting point is 90 to 96 °C. Moreover, on cdk2/cyclinE, the inhibition at 40 µM was 0%.
`CCN(CC)CCOc1ccc(Nc2ncc3c(=O)n(Cc4ccc(OC)cc4)c(=O)n(C(C)C)c3n2)cc1` [Example 73, 7-[4-(2-Diethylaminoethoxy)phenylamino]-1-isopropyl-3-(4-methoxybenzyl)-1H-pyrimido[4,5-d]pyrimidine-2,4-dione] registered a melting point of 139 to 141 °C.
